Experiment [1] has as its target Ribosomal protein S6 kinase alpha-1 (Homo sapiens, UniProt Q15418). The experiment can be described thus: Eurofins kinase panel (RPS6KA1). On the set-up: compound concentration 1 uM.
For experiment [2], the target named is T1, Mitogen-activated protein kinase kinase kinase 5 (Homo sapiens) (UniProt Q99683).
T1 sequence (whole entry): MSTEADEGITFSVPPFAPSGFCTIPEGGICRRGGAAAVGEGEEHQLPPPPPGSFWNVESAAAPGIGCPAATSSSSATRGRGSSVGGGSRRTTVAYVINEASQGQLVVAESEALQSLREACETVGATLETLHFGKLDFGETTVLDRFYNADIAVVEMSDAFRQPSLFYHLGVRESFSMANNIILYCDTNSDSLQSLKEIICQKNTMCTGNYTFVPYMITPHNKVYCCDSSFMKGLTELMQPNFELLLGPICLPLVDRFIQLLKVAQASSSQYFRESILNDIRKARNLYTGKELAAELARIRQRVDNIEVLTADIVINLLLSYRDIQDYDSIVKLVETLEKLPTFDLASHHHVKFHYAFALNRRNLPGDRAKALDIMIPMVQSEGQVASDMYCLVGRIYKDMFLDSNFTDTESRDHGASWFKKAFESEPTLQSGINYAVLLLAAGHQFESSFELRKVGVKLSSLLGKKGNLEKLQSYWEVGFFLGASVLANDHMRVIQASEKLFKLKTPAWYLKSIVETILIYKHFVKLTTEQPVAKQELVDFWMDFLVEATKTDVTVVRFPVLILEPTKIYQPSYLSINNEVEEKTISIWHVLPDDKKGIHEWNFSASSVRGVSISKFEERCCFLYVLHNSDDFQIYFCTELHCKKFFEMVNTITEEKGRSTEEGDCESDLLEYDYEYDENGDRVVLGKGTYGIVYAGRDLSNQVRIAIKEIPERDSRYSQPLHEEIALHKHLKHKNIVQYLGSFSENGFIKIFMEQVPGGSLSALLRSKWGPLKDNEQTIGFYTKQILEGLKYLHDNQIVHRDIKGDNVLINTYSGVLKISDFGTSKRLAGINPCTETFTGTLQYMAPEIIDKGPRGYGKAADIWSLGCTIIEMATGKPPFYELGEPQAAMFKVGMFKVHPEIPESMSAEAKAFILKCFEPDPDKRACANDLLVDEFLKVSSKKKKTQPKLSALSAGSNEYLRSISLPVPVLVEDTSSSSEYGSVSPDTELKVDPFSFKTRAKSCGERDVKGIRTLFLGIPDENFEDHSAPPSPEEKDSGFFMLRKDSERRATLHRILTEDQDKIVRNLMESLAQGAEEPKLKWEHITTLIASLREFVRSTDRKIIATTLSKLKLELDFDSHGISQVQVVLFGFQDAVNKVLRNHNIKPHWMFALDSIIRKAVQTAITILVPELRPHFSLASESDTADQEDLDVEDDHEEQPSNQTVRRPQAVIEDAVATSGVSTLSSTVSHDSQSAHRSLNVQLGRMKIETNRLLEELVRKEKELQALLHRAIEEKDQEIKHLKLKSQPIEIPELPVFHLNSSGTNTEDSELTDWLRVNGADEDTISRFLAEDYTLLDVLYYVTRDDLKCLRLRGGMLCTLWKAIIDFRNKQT
The experiment is described as follows: ASK1(h) Eurofins kinase panel. The note with it: Compound concentration 1.0 uM.

The target of experiment [3] is Casein kinase I isoform gamma-3 (Homo sapiens) (UniProt Q9Y6M4). The experiment is described as follows: CK1gamma3(h) Eurofins kinase panel. The note with it: Compound concentration 1.0 uM.
In experiment [4] the target is Dual specificity protein kinase CLK1 (Homo sapiens) (UniProt P49759). The experiment can be described thus: CLK1(h) Eurofins kinase panel. The note with it: Compound concentration 1.0 uM.
Experiment [5] concerns the target T2, Ephrin type-B receptor 4 (Homo sapiens) (UniProt P54760).
T2 sequence (whole entry): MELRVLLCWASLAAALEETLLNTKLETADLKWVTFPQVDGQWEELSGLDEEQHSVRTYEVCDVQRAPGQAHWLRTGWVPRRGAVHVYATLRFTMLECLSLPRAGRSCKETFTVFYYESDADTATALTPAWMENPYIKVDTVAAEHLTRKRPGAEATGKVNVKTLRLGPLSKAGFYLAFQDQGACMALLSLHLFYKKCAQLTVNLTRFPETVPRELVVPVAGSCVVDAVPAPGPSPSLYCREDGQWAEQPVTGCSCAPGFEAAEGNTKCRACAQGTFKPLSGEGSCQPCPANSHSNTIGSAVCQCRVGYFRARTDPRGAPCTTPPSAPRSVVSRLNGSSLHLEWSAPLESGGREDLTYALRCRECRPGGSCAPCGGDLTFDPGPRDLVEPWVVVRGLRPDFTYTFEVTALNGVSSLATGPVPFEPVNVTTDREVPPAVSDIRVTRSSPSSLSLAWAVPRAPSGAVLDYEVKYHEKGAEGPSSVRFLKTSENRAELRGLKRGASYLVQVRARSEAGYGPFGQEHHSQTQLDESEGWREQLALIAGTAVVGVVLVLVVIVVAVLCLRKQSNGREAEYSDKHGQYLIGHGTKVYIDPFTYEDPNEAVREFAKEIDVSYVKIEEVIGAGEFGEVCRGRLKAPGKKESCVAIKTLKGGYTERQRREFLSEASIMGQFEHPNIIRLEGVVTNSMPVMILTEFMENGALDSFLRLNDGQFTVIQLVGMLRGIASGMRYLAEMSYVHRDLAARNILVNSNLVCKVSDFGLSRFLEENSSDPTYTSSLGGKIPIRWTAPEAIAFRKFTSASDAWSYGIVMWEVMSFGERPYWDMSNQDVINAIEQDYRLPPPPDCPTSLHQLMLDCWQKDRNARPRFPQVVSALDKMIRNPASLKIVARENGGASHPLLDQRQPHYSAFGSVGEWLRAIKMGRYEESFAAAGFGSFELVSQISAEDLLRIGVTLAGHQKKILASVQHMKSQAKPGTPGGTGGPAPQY
The experiment can be described thus: EphB4(h) Eurofins kinase panel. The note with it: Compound concentration 1.0 uM.

The target in experiment [6] is Insulin receptor (Homo sapiens) (UniProt P06213). The experiment can be described thus: IR(h), activated Eurofins kinase panel. The note with it: Compound concentration 1.0 uM.
Experiment [7] addresses Serine/threonine-protein kinase/endoribonuclease IRE1 (Homo sapiens) (UniProt O75460). The experiment can be described thus: IRE1(h) Eurofins kinase panel. The note with it: Compound concentration 1.0 uM.
The subject of experiment [8] is IMR-32. The experiment is described as follows: IMR-32 cell line Proliferation assay. It counts as functional, Homo sapiens. The note with it: time 6 day.

Active and inactive are the calls of the source. No cut-off for these calls is given here. A value given as a limit tells only on which side of the number the result lay.

Insulin receptor (Homo sapiens), sequence (P06213 28-758 limits assumed): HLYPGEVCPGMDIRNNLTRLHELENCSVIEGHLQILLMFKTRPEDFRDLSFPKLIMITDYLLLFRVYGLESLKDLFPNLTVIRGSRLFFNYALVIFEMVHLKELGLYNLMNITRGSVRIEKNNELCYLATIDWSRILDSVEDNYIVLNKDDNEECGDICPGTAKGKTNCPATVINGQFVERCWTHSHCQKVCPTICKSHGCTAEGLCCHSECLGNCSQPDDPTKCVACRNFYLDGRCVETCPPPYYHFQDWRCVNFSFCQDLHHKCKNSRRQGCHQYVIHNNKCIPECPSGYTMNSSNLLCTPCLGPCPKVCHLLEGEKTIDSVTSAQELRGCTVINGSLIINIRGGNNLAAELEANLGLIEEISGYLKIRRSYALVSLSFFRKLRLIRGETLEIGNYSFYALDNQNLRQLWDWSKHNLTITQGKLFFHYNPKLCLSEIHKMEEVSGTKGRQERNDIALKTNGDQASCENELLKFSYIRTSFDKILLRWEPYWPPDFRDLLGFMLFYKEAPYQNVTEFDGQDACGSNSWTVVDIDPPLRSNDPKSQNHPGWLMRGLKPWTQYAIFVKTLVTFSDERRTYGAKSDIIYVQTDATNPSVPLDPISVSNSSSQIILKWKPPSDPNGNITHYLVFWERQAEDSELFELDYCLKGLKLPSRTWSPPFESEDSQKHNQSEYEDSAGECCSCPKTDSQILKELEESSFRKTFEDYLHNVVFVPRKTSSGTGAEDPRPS
Insulin receptor (Homo sapiens), sequence (P06213 763-1382 limits assumed): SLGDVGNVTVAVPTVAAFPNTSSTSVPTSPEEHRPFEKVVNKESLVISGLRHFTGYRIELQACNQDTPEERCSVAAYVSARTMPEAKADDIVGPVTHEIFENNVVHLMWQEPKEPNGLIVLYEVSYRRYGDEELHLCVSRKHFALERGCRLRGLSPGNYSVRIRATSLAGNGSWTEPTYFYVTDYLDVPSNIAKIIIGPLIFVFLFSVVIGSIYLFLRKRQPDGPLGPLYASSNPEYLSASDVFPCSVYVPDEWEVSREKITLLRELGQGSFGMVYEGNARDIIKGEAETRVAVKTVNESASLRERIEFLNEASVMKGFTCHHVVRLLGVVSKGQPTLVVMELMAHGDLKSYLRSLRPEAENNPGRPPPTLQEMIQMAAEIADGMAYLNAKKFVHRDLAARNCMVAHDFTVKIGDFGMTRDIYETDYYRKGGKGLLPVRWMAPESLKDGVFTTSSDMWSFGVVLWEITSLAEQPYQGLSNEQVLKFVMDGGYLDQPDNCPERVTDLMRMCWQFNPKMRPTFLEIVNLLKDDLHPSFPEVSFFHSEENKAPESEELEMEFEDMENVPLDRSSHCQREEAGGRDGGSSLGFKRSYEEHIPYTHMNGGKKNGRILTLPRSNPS
Ribosomal protein S6 kinase alpha-1, sequence (Q15418 whole entry): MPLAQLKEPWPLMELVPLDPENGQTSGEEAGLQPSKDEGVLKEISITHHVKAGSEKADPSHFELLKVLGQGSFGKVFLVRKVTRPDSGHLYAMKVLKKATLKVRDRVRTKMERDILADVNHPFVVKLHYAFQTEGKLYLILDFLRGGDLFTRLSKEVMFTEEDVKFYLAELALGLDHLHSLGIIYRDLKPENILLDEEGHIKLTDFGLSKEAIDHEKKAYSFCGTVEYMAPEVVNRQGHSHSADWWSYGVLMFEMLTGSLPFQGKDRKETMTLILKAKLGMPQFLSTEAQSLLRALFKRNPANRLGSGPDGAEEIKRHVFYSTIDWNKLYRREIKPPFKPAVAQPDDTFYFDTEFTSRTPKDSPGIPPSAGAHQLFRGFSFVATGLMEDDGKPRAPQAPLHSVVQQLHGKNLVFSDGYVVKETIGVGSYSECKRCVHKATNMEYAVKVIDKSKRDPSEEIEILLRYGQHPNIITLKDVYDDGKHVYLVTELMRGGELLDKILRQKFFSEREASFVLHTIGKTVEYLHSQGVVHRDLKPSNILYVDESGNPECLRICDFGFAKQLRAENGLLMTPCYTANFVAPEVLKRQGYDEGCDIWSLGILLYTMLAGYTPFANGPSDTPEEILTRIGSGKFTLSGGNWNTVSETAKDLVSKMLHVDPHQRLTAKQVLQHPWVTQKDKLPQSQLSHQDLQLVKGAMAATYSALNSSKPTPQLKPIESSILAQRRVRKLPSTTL
Serine/threonine-protein kinase/endoribonuclease IRE1 (Homo sapiens), sequence (O75460 19-977 limits assumed): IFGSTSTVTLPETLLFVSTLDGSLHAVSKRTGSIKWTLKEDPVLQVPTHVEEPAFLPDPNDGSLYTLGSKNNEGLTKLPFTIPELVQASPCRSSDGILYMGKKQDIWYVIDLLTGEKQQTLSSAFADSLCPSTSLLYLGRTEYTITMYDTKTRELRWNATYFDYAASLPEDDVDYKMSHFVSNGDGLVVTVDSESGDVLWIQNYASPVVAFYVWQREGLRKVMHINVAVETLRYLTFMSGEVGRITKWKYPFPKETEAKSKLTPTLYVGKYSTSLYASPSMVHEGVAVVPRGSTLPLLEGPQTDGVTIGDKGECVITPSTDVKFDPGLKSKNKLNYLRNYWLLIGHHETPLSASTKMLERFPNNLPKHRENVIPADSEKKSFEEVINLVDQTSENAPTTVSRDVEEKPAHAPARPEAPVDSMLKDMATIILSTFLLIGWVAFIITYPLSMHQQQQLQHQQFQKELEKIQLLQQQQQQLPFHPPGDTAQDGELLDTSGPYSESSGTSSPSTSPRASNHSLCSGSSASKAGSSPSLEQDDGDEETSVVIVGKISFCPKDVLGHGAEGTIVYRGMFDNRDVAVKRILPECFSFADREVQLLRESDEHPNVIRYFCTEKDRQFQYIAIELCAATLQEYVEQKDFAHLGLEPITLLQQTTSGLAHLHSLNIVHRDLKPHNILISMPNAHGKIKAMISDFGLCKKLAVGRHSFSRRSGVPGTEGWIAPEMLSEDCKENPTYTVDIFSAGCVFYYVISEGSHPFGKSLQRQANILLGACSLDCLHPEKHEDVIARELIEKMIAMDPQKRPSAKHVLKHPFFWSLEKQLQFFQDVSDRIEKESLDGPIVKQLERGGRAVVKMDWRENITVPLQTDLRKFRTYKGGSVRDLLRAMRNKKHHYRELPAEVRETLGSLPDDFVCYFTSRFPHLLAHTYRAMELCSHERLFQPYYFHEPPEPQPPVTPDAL
Casein kinase I isoform gamma-3 (Homo sapiens), sequence (Q9Y6M4 whole entry, looked up, canonical isoform): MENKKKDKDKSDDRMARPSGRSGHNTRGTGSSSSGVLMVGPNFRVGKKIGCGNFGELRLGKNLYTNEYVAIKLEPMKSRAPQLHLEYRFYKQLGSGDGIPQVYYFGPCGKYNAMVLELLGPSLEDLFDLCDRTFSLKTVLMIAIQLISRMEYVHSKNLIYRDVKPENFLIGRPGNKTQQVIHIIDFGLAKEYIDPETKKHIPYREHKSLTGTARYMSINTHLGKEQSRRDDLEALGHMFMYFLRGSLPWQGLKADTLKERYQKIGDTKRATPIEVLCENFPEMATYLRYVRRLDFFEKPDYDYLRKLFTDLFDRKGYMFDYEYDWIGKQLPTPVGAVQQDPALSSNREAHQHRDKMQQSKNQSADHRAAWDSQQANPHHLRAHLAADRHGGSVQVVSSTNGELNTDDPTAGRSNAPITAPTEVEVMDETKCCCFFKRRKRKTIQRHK
Dual specificity protein kinase CLK1 (Homo sapiens), sequence (P49759 whole entry, looked up): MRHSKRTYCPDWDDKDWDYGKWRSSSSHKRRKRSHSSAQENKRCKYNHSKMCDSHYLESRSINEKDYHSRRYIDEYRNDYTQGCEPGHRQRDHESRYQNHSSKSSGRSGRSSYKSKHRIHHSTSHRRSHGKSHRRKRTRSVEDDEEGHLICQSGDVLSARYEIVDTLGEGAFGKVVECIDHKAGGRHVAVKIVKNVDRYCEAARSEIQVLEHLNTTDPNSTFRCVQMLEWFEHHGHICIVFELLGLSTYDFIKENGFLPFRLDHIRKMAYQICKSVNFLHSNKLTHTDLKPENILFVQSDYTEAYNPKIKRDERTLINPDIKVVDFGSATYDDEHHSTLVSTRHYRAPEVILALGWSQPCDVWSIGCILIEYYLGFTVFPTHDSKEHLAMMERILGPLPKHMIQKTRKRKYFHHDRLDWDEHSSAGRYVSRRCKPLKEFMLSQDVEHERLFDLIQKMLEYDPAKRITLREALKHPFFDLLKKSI

As for `CCc1ccccc1C(=O)Nc1n[nH]c2c(C)c(F)c(C3C(C#N)=C(C)N(C)C(C)=C3C#N)cc12` [BAY-3827], the IC50 (commonly the concentration needed to halve the response being measured) in experiment [1] is 0.0091 µM (active). Moreover, the % residual kinase activity in experiment [2] was 99%; in experiment [3], 105%; in experiment [4] it was 108%; in experiment [5] it was 77%; in experiment [6], 89%; in experiment [7] it was 104%. Also, in experiment [8], the “Cell Proliferation IC50” value is greater than 11.5 µM.
